Assay results: patent US20240132484A1, “BROAD SPECTRUM ANTIVIRAL COMPOUNDS TARGETING THE SKI COMPLEX” (priority 2020, published 2024)
Where two headings read alike, the source gives them in different places.

What was measured:
[1] = test system: cells (nuclei count)
[2] = test system: SARS2; format: cell-based, SARS-CoV-2
[3] = biological target: WDR61 (Homo sapiens, UniProt Q9GZS3); test: Surface Plasmon Resonance with pure WDR61 protein
[4] = test system: Influenza virus; test: organism not typed; format: cell-based, influenza A virus; conditions: for Avg: 1-24-20; for Avg PFU/ml: average of first and second experiment; for Flu titer (pfu/ml) / Influenza virus titer, 10 μM / Influenza virus titer, 50 μM: plaque assay; for Influenza virus titer, 10 μM / Influenza virus titer, 50 μM: upper part of table (FIG. 5 data)

For `CN1CCN(CC(O)COc2c(CNCCc3ccccc3F)cccc2C2CCCCC2)CC1` (centres unmarked) [SILCS4], the “Relative cell count to DMSO controls, Average 1 μM” value ([1]; 1 μM, toxicity data, 100=DMSO control) was 116.22, the “Relative cell count to DMSO controls, Average 5 μM” value ([1]; 5 μM, toxicity data, 100=DMSO control) was 123.91 and the “Relative cell count to DMSO controls, Average 10 μM” value ([1]; 10 μM, toxicity data, 100=DMSO control) was 122.04. The “Relative cell count to DMSO controls, Average 25 μM” value ([1]; 25 μM, toxicity data, 100=DMSO control) was 3.91, the “Relative cell count to DMSO controls, Average 50 μM” value ([1]; 50 μM, toxicity data, 100=DMSO control) was 2.18 and the “Toxicity Data, Average, Mean (relative to DMSO control)” value ([1]; Average of Exp 1-3, 1 uM) was 116.22%. For the same molecule, the “Toxicity Data, Average, Mean (relative to DMSO control)” value ([1]; Average of Exp 1-3, 5 uM) was 123.91%, the “Toxicity Data, Average, Mean (relative to DMSO control)” value ([1]; Average of Exp 1-3, 10 uM) was 122.04% and the “Toxicity Data, Average, Mean (relative to DMSO control)” value ([1]; Average of Exp 1-3, 25 uM) was 3.91%. The “Toxicity Data, Average, Mean (relative to DMSO control)” value ([1]; Average of Exp 1-3, 50 uM) was 2.18%, the “Relative cell count to DMSO controls, Average (for correlation analysis)” value ([1]; average value over the 5 tested concentrations (1 to 50 uM)) was 73.65 and the “Percentage Inhibition Average 1 μM” value ([2]; SARS2, 1 μM) was 17.51%. For the same molecule, the “Screening data (Relative infection to DMSO controls) Average 1 μM” value ([2]; SARS2, 1 μM, 100=DMSO control) was 82.49, the “Percentage Inhibition Average 5 μM” value ([2]; SARS2, 5 μM) was 59.94% and the “Screening data (Relative infection to DMSO controls) Average 5 μM” value ([2]; SARS2, 5 μM, 100=DMSO control) was 40.06. For the same molecule, the “Percentage Inhibition Average 10 μM” value ([2]; SARS2, 10 μM) was 86.21%, the “Screening data (Relative infection to DMSO controls) Average 10 μM” value ([2]; SARS2, 10 μM, 100=DMSO control) was 13.79 and the “Percentage Inhibition Average 25 μM” value ([2]; SARS2, 25 μM) was 81.29%. The “Screening data (Relative infection to DMSO controls) Average 25 μM” value ([2]; SARS2, 25 μM, 100=DMSO control) was 18.71, the “Percentage Inhibition Average 50 μM” value ([2]; SARS2, 50 μM) was 90.83% and the “Screening data (Relative infection to DMSO controls) Average 50 μM” value ([2]; SARS2, 50 μM, 100=DMSO control) was 9.17. For the same molecule, the “Average (relative infection to DMSO over the 5 tested concentrations)” value ([2]; SARS2, average over 1 to 50 uM, 100=DMSO control) was 32.84 and the “direct binding to WDR61 by SPR” value [3] was “binding directly to WDR61”.
`COc1ccc(CNCCc2ccccc2F)c(OCC(O)CN2CCN(C)CC2)c1` (centres unmarked) [Compound 18, 1-[2-({[2-(2-fluorophenyl)ethyl]amino}methyl)-5-methoxyphenoxy]-3-(4-methyl-1-piperazinyl)-2-propanol] was tested, and the first experiment ([4]; 10 μM screen) was 2000 PFU/ml, the second experiment ([4]; 10 μM screen) was 1100 PFU/ml and the Avg ([4]; 10 μM screen) was 1150 PFU/ml. The “Avg PFU/ml” value ([4]; 10 μM screen) was 1550 PFU/ml, the “first experiment PFU/ml” value ([4]; 50 μM screen) was 1400 PFU/ml and the “second experiment PFU/ml” value ([4]; 50 μM screen) was 300 PFU/ml. For the same molecule, the Avg ([4]; 50 μM screen) was 400 PFU/ml and the “Avg PFU/ml” value ([4]; 50 μM screen) was 850 PFU/ml.
`OC(COc1ccccc1CNCc1cn2c(n1)SCC2)CN1CCSCC1` (centres unmarked) [Compound 32841411, 1-(2-{[(2,3-dihydroimidazo[2,1-b][1,3]thiazol-6-ylmethyl)amino]methyl}phenoxy)-3-(4-thiomorpholinyl)-2-propanol] was tested, and the “Flu titer (pfu/ml)” value ([4]; 1 μM compound, A549 cells) was 170000 pfu/ml, the “Flu titer (pfu/ml)” value ([4]; 10 μM compound, A549 cells) was 80000 pfu/ml and the “Flu titer (pfu/ml)” value ([4]; 50 μM compound, A549 cells) was 31000 pfu/ml.
`COc1ccc(CNCCc2cccnc2)c(OCC(O)CN2CCCCCCC2)c1` (centres unmarked) [Compound 18-9] was tested, and the first experiment ([4]; 10 μM screen) was 200000 PFU/ml, the second experiment ([4]; 10 μM screen) was 9000 PFU/ml and the “Avg PFU/ml” value ([4]; 10 μM screen) was 104500 PFU/ml. The “Influenza virus titer, 10 μM” value [4] was 200000 PFU/virus/ml, the “first experiment PFU/ml” value ([4]; 50 μM screen) was 20000 PFU/ml and the “second experiment PFU/ml” value ([4]; 50 μM screen) was 2600 PFU/ml. The “Avg PFU/ml” value ([4]; 50 μM screen) was 11300 PFU/ml and the “Influenza virus titer, 50 μM” value [4] was 20000 PFU/virus/ml.
For `COc1ccc(CNCCc2ccccc2C)c(OCC(O)CN2CCN(C)CC2)c1` (centres unmarked) [UMB40], the “antiviral activity against IAV infection” value ([4]; screening, A549 cells) was “showed a degree of antiviral activity”.
With `COc1ccc(CNCCc2ccccc2F)c(OCC(O)CN2CCN(C)CC2)c1` (centres unmarked) [Compound 18-lead, 1-[2-({[2-(2-fluorophenyl)ethyl]amino}methyl)-5-methoxyphenoxy]-3-(4-methyl-1-piperazinyl)-2-propanol] the “Influenza virus titer, 10 μM” value [4] was 2000 PFU/virus/ml and the “Influenza virus titer, 50 μM” value [4] was 1400 PFU/virus/ml.
`Cc1ccc(-c2cc3c(c(OCC4CCCCO4)c2)OCCN(C(=O)C2CC2)C3)s1` (centres unmarked) [Compound 43261887, 4-(cyclopropylcarbonyl)-7-(5-methyl-2-thienyl)-9-(tetrahydro-2H-pyran-2-ylmethoxy)-2,3,4,5-tetrahydro-1,4-benzoxazepine] was tested, and the “Flu titer (pfu/ml)” value ([4]; 1 μM compound, A549 cells) was 60000 pfu/ml, the “Flu titer (pfu/ml)” value ([4]; 10 μM compound, A549 cells) was 170000 pfu/ml and the “Flu titer (pfu/ml)” value ([4]; 50 μM compound, A549 cells) was 30000 pfu/ml.
For `COC(=O)C1CCN(CC(O)COc2cccc(CN(C)Cc3cc(C)no3)c2)CC1` (centres unmarked) [Compound 62396835, methyl 1-{2-hydroxy-3-[3-({methyl[(3-methyl-5-isoxazolyl)methyl]amino}methyl)phenoxy]propyl}-4-piperidinecarboxylate], the “Flu titer (pfu/ml)” value ([4]; 1 μM compound, A549 cells) was 66000 pfu/ml, the “Flu titer (pfu/ml)” value ([4]; 10 μM compound, A549 cells) was 71000 pfu/ml and the “Flu titer (pfu/ml)” value ([4]; 50 μM compound, A549 cells) was 30000 pfu/ml.
`O=C(NC1CCCCCC1)c1cn[nH]c1-c1ccc2c(c1)OCCO2` [UMB98] was tested, and the “10 μM treatment, Average” value ([4]; 10 μM treatment, average of replicates) was 0, the “10 μM treatment” value ([4]; 10 μM treatment, replicate 2) was 0 and the “50 μM treatment Average” value ([4]; 50 μM compound, average of replicates) was 0. The “50 μM treatment” value ([4]; 50 μM compound, replicate 1, DMSO (0.5%) control run per batch) was 0 and the “50 μM treatment” value ([4]; 50 μM compound, replicate 2) was 0.
